Results reported in patent publication US8471061B2 (priority 2004, dated 2013).
Like-named read-outs stand apart in the source and are kept apart here.

Tests used:
[1] = tested on: spiderwort Commelina communis; assay: Plant activating effect, foliar application, spiderwort; format: in vivo; conditions: 21 days, 12 plants
Protocol: A total of 12 pots, in which 600 g of volcanic ash soil was packed in a porcelain pot of 12 cm in inner diameter, and 1 plant of a spiderwort Commelina communis grown to a height of 15 cm was planted in 1 pot, were prepared and placed under a constant temperature environment of 20° C., and foliar application treatment was carried out once a day using the following application liquids. Conditions of the leaves 21 days thereafter were observed.

[2] = tested on: cotton (variety; M-5 Acala); assay: Salinity tolerance improving effect; format: in vivo; design: key: salt damage: 0 = none, 5 = plant withered
Protocol: A porcelain pot of 12 cm in inner diameter having no drainage hole was filled with 600 g of upland soil, and 7 to 8 seeds of cotton seeds (variety; M-5 Acala) were sowed, covered with 1 cm in thickness of the soil and allowed to grow in a green house. Thereafter, general management was carried out, and at the time of leaflet development, a salinity improving agent containing each of the compounds to be tested with respective concentrations shown in Table 12 and 0.05% (v/v) of a spreader (Neoesterin: manufactured by Kumiai Chemical Industry) was prepared and was applied to foliage at an application volume of 100 liters per 10 are. Four days thereafter, sodium chloride in an amount which corresponds to 0 to 1.5% by weight per soil weight as shown in Table 12 was dissolved in 30 ml of water and added dropwise to the soil. By further continuing general cultivation, examination was carried out 23 days thereafter. the examination was carried out by naked eye observation, and the results of salt damage were evaluated based on the following 6 steps.
• 0: Absolutely no salt damage is observed. • 1: Very weak salt damage is observed. • 2: Weak salt damage is observed. • 3: Obvious salt damage is observed. • 4: Strong salt damage is observed. • 5: The plant body withered up due to salt damage.

[3] = Stimulation test (sense of taste, solid put on the tongue); format: in vivo; design: key to sense of taste stimulation: 0: No stimulation is felt.; 1: There is a stimulation but weak.; 2: There is a strong stimulation; conditions: for sense of taste stimulation: 5 mg of solid on the tongue, one score per subject, five subjects
Protocol: Each of five subjects has evaluated the sense of taste of the 5-aminolevulinic acid phosphate obtained in Example 1, in accordance with the following criteria by directly putting 5 mg of its solid on the tongue.
• 0: No stimulation is felt. • 1: There is a stimulation but weak. • 2: There is a strong stimulation.
The sense of taste was evaluated in the same manner as in Example 6, except that 5 mg of solid of 5-aminolevulinic acid hydrochloride was used.

apple variety “Fuji” = assay: Coloring test of apple; format: in vivo
Protocol: The 5-aminolevulinic acid phosphate obtained in Example 1 was dissolved in ion exchange water to the predetermined concentration shown in the following table. A spreader (“Approach BI” manufactured by Maruwa Biochemical) was added to the liquid to a concentration of 0.1% by weight. The pH was adjusted using phosphoric acid.
An aqueous 5-aminolevulinic acid hydrochloride solution was prepared in the same manner, except that the above-described 5-aminolevulinic acid phosphate was changed to 5-aminolevulinic acid hydrochloride and the phosphoric acid for pH adjustment was changed to hydrochloric acid.
The thus prepared liquid was sprayed at a ratio of 2 liters per branch on three main branches where young fruits of an apple variety “Fuji” bored but not yet colored into red (September 15). About 2 months thereafter (November 6), the apples were harvested and their coloring degree was examined. A color meter CR-200 manufactured by MINOLTA CAMERA was used for the measurement of color.
The 5-aminolevulinic acid nitrate obtained in Example 16 was dissolved in ion exchange water to the predetermined concentration shown in Table 16. A spreader (“Approach BI” manufactured by Maruwa Biochemical) was added to the liquid to a concentration of 0.1% by weight. The pH was adjusted using nitric acid.
A solution was prepared in the same manner, except that the above-described 5-aminolevulinic acid nitrate was changed to 5-aminolevulinic acid hydrochloride and the nitric acid was changed to hydrochloric acid.
The 5-aminolevulinic acid p-toluenesulfonate obtained in Example 23 was dissolved in ion exchange water to the predetermined concentration shown in Table 24. A spreader (“Approach B1” manufactured by Maruwa Biochemical) was added to the liquid to a concentration of 0.1% by weight. The pH was adjusted using p-toluenesulfonic acid.
A solution was prepared in the same manner, except that the above-described 5-aminolevulinic acid p-toluenesulfonate was changed to 5-aminolevulinic acid hydrochloride and the p-toluenesulfonic acid was changed to hydrochloric acid.

[4] = tested on: New Zealand white rabbits (males), shaved uninjured skin; conditions: in vivo
Protocol: (§1) Using three New Zealand white rabbits (males), a solution prepared by dissolving 0.5 g of 5-aminolevulinic acid phosphate in 0.5 ml of distilled water (pH 3.1) was applied for 4 hours to a 2.5 cm square area of the shaved uninjured skin of each animal which was then observed for 1, 24, 48 and 72 hours.

[5] = pH of solution of 0.5 g in 0.5 ml of distilled water; format: physicochemical
Protocol: as §1

[6] = treating concentration 10 ppm, NaCl 0 wt % per soil weight
[7] = treating concentration 10 ppm, NaCl 0.5 wt % per soil weight
[8] = treating concentration 10 ppm, NaCl 0.75 wt % per soil weight
[9] = treating concentration 10 ppm, NaCl 1 wt % per soil weight
[10] = treating concentration 10 ppm, NaCl 1.5 wt % per soil weight
[11] = treating concentration 30 ppm, NaCl 0 wt % per soil weight
[12] = treating concentration 30 ppm, NaCl 0.5 wt % per soil weight
[13] = treating concentration 30 ppm, NaCl 0.75 wt % per soil weight
[14] = treating concentration 30 ppm, NaCl 1 wt % per soil weight
[15] = treating concentration 30 ppm, NaCl 1.5 wt % per soil weight
[16] = treating concentration 100 ppm, NaCl 0 wt % per soil weight
[17] = treating concentration 100 ppm, NaCl 0.5 wt % per soil weight
[18] = treating concentration 100 ppm, NaCl 0.75 wt % per soil weight
[19] = treating concentration 100 ppm, NaCl 1 wt % per soil weight
[20] = treating concentration 100 ppm, NaCl 1.5 wt % per soil weight
[21] = treating concentration 300 ppm, NaCl 0 wt % per soil weight
[22] = treating concentration 300 ppm, NaCl 0.5 wt % per soil weight
[23] = treating concentration 300 ppm, NaCl 0.75 wt % per soil weight
[24] = treating concentration 300 ppm, NaCl 1 wt % per soil weight
[25] = treating concentration 300 ppm, NaCl 1.5 wt % per soil weight
[26] = male, New Zealand white, rabbit, 1 h
[27] = male, New Zealand white, rabbit, 24 h
[28] = male, New Zealand white, rabbit, 48 h
[29] = male, New Zealand white, rabbit, 72 h

Compound: Cl.NCC(=O)CCC(=O)O [5-aminolevulinic acid hydrochloride, reference compound]
- plants judged 0: Abnormality was not found on the leaf surface ([1]; 1 ppm in tap water): 2 plants
- plants judged 1: A region discolored to yellow was found on the leaf surface ([1]; 1 ppm in tap water): 7 plants
- plants judged 2: A necrotic region was found on the leaf surface ([1]; 1 ppm in tap water): 3 plants
- plants judged 0: Abnormality was not found on the leaf surface ([1]; 10 ppm in tap water): 5 plants
- plants judged 1: A region discolored to yellow was found on the leaf surface ([1]; 10 ppm in tap water): 5 plants
- plants judged 2: A necrotic region was found on the leaf surface ([1]; 10 ppm in tap water): 2 plants
- plants judged 0: Abnormality was not found on the leaf surface ([1]; 100 ppm in tap water): 5 plants
- plants judged 1: A region discolored to yellow was found on the leaf surface ([1]; 100 ppm in tap water): 4 plants
- plants judged 2: A necrotic region was found on the leaf surface ([1]; 100 ppm in tap water): 3 plants
- salt damage evaluation [2, 6]: 0
- salt damage evaluation [2, 7]: 1
- salt damage evaluation [2, 8]: 1
- salt damage evaluation [2, 9]: 1
- salt damage evaluation [2, 10]: 2
- salt damage evaluation [2, 11]: 0
- salt damage evaluation [2, 12]: 1
- salt damage evaluation [2, 13]: 2
- salt damage evaluation [2, 14]: 3
- salt damage evaluation [2, 15]: 3
- salt damage evaluation [2, 16]: 0
- salt damage evaluation [2, 17]: 1
- salt damage evaluation [2, 18]: 1
- salt damage evaluation [2, 19]: 2
- salt damage evaluation [2, 20]: 3
- salt damage evaluation [2, 21]: 0
- salt damage evaluation [2, 22]: 0
- salt damage evaluation [2, 23]: 1
- salt damage evaluation [2, 24]: 1
- salt damage evaluation [2, 25]: 2
- sense of taste stimulation [3]: 2
- Coloring, L (apple variety “Fuji”; 100 ppm (pH 5.0)): 42.28
- Coloring, a (apple variety “Fuji”; 100 ppm (pH 5.0)): 25.96
- Coloring, b (apple variety “Fuji”; 100 ppm (pH 5.0)): 14.72
- Coloring, L (apple variety “Fuji”; 200 ppm (pH 4.8)): 42.34
- Coloring, a (apple variety “Fuji”; 200 ppm (pH 4.8)): 30.92
- Coloring, b (apple variety “Fuji”; 200 ppm (pH 4.8)): 14.41
- judgement by the OECD Guideline from pH (animal test not carried out) ([4]; rabbit): judged corrosive
- pH of solution [5]: ≤ 2.0

Compound: NCC(=O)CCC(=O)O.O=P(O)(O)O [5-aminolevulinic acid phosphate, 5-aminolevulinic Acid Phosphate]
- plants judged 0: Abnormality was not found on the leaf surface ([1]; 1 ppm in tap water): 6 plants
- plants judged 1: A region discolored to yellow was found on the leaf surface ([1]; 1 ppm in tap water): 5 plants
- plants judged 2: A necrotic region was found on the leaf surface ([1]; 1 ppm in tap water): 1 plant^ plants
- plants judged 0: Abnormality was not found on the leaf surface ([1]; 10 ppm in tap water): 7 plants
- plants judged 1: A region discolored to yellow was found on the leaf surface ([1]; 10 ppm in tap water): 3 plants
- plants judged 2: A necrotic region was found on the leaf surface ([1]; 10 ppm in tap water): 2 plants
- plants judged 0: Abnormality was not found on the leaf surface ([1]; 100 ppm in tap water): 6 plants
- plants judged 1: A region discolored to yellow was found on the leaf surface ([1]; 100 ppm in tap water): 4 plants
- plants judged 2: A necrotic region was found on the leaf surface ([1]; 100 ppm in tap water): 2 plants
- salt damage evaluation [2, 6]: 0
- salt damage evaluation [2, 7]: 0
- salt damage evaluation [2, 8]: 1
- salt damage evaluation [2, 9]: 2
- salt damage evaluation [2, 10]: 3
- salt damage evaluation [2, 11]: 0
- salt damage evaluation [2, 12]: 0
- salt damage evaluation [2, 13]: 0
- salt damage evaluation [2, 14]: 1
- salt damage evaluation [2, 15]: 2
- salt damage evaluation [2, 16]: 0
- salt damage evaluation [2, 17]: 1
- salt damage evaluation [2, 18]: 2
- salt damage evaluation [2, 19]: 3
- salt damage evaluation [2, 20]: 4
- salt damage evaluation [2, 21]: 0
- salt damage evaluation [2, 22]: 1
- salt damage evaluation [2, 23]: 1
- salt damage evaluation [2, 24]: 2
- salt damage evaluation [2, 25]: 3
- stimulation on the tongue in comparison with hydrochloride ([3]; 5 mg of solid): strong stimulation was not found
- sense of taste stimulation [3]: 1
- Coloring, L (apple variety “Fuji”; 100 ppm (pH 5.0)): 42.37
- Coloring, a (apple variety “Fuji”; 100 ppm (pH 5.0)): 27.45
- Coloring, b (apple variety “Fuji”; 100 ppm (pH 5.0)): 14.54
- Coloring, L (apple variety “Fuji”; 200 ppm (pH 5.4)): 42.43
- Coloring, a (apple variety “Fuji”; 200 ppm (pH 5.4)): 31.06
- Coloring, b (apple variety “Fuji”; 200 ppm (pH 5.4)): 14.63
- Coloring of red compared with 5-aminolevulinic acid hydrochloride (apple variety “Fuji”; in vivo): Coloring of red was denser
- Formation of dropsy and edema (formed numbers), per rabbit ([4]; male, New Zealand white, 1 h): 0
- Formation of erythema and dry crust (formed numbers), per rabbit ([4]; male, New Zealand white, 1 h): 1
- Formation of dropsy and edema (formed numbers), per rabbit ([4]; male, New Zealand white, 24 h): 0
- Formation of erythema and dry crust (formed numbers), per rabbit ([4]; male, New Zealand white, 24 h): 1
- Formation of dropsy and edema (formed numbers), per rabbit ([4]; male, New Zealand white, 48 h): 0
- Formation of erythema and dry crust (formed numbers), per rabbit ([4]; male, New Zealand white, 48 h): 0
- Formation of dropsy and edema (formed numbers), per rabbit ([4]; male, New Zealand white, 72 h): 0
- Formation of erythema and dry crust (formed numbers), per rabbit ([4]; male, New Zealand white, 72 h): 0
- Total formed numbers after 24 hours and 72 hours ([4]; male, New Zealand white, rabbit): Total formed numbers after 24 hours and 72 hours: 3
- Formation of dropsy and edema (formed numbers) [4, 26]: 0
- Formation of dropsy and edema, Total of three rabbits [4, 26]: 0
- Formation of erythema and dry crust (formed numbers) [4, 26]: 0
- Formation of erythema and dry crust, Total of three rabbits [4, 26]: 3
- skin reaction observed ([4]; male, New Zealand white, rabbit, 4 h): very slight red spots were observed within 24 hours, but became normal when observed after 48 hours
- Formation of dropsy and edema (formed numbers) [4, 27]: 0
- Formation of dropsy and edema, Total of three rabbits [4, 27]: 0
- Formation of erythema and dry crust (formed numbers) [4, 27]: 0
- Formation of erythema and dry crust, Total of three rabbits [4, 27]: 3
- Formation of dropsy and edema (formed numbers) [4, 28]: 0
- Formation of dropsy and edema, Total of three rabbits [4, 28]: 0
- Formation of erythema and dry crust (formed numbers) [4, 28]: 0
- Formation of erythema and dry crust, Total of three rabbits [4, 28]: 0
- Formation of dropsy and edema (formed numbers) [4, 29]: 0
- Formation of dropsy and edema, Total of three rabbits [4, 29]: 0
- Formation of erythema and dry crust (formed numbers) [4, 29]: 0
- Formation of erythema and dry crust, Total of three rabbits [4, 29]: 0
- skin stimulation ([4]; rabbit): skin stimulation was not observed
- stimulation classification (United Nations recommendation GHS) ([4]; rabbit): does not come under a stimulus substance
- pH of solution [5]: 3.1
